Laboratory results: the SangsterLogP compilation

Assay: not given

logP	SMILES
3.78	CNC(=O)N(C)C(=O)Nc1cc(-c2ccccc2)ccc1F
2.14	CNC(=O)N(C)C(=O)Nc1cc(OC)ccc1F
2.4	CNC(=O)N(C)C(=O)Nc1cc(F)ccc1F

The remaining lines, values behind:

SMILES	logP
CNC(=O)N(C)C(=O)Nc1cc(S(=O)(=O)C(C)C)ccc1F	1.87
CNC(=O)N(C)C(=O)Nc1cc(C(C)(C)C)ccc1F	3.96
CNC(=O)N(C)C(=O)Nc1cc(C(C)=O)ccc1F	1.82
CNC(=O)N(C)C(=O)Nc1cc(Cc2ccccc2)ccc1F	3.9

Assay: method code SF-AS, from DOI: 10.1021/jf00090a013

logP	SMILES
3.23	CCc1ccc(F)c(NC(=O)N(C)C(=O)NC)c1
2.12	CNC(=O)N(C)C(=O)Nc1ccccc1F
3.53	CNC(=O)N(C)C(=O)Nc1cc(C(C)C)ccc1F
2.3	CNC(=O)N(C)C(=O)Nc1cc([N+](=O)[O-])ccc1F
3.58	CNC(=O)N(C)C(=O)Nc1cc(I)ccc1F

Further lines, the compound ahead of its results:

SMILES	logP
CCC(CC)c1ccc(F)c(NC(=O)N(C)C(=O)NC)c1	4.46
CNC(=O)N(C)C(=O)Nc1cc(C2CCCCC2)ccc1F	4.58
CNC(=O)N(C)C(=O)Nc1cc(C(=O)OC)ccc1F	2.28
CNC(=O)N(C)C(=O)Nc1cc(OC(C)C)ccc1F	3.08
